Where no end group is shown, it is not given here. [ ]: non-standard residue; d: D form.
System: transgenic ALS mice (tg G93R SOD1 mice)
Assay: Treatment studies in transgenic ALS mice: behavioral and motor tests (open field, SHIRPA, pole, hind-leg grip strength, rotarod, hind-leg spread) and histological analyses
Format: in vivo
Details: two treatment studies
Method: To analyze the anti-inflammatory effect of RD2RD2 as a potential therapeutic for treating ALS, two treatment studies were carried out in transgenic ALS mice (tg G93R SOD1 mice).

## ptlhthnrrrrrptlhthnrrrrr ([dP][dT][dL][dH][dT][dH][dN][dR][dR][dR][dR][dR][dP][dT][dL][dH][dT][dH][dN][dR][dR][dR][dR][dR]) [RD2RD2]
Behavioral and motor tests
  disease onset: delays disease onset
  disease progression: slows disease progression
Histological analyses
  inflammatory reactions: reduces inflammatory reactions
